Data published in patent US20140024527A1, “HERBICIDAL PYRAZINONES” (E I DU DE NEMOURS AND COMPANY, priority 2011, published 2014).

How the values were obtained:
Type in all cases: in vivo
rice (Oryza sativa) = assay: Test B flooded paddy test; conditions: Flood, scale 0 to 100
Source text: (§1) Plant species in the flooded paddy test consisted of rice (Oryza sativa), umbrella sedge (Cyperus difformis), ducksalad (Heteranthera limosa) and barnyardgrass (Echinochloa crus-galli) grown to the 2-leaf stage for testing. At time of treatment, test pots were flooded to 3 cm above the soil surface, treated by application of test compounds directly to the paddy water, and then maintained at that water depth for the duration of the test. Treated plants and controls were maintained in a greenhouse for 13 to 15 days, after which time all species were compared to controls and visually evaluated. Plant response ratings, summarized in Table B, are based on a scale of 0 to 100 where 0 is no effect and 100 is complete control. A dash (-) response means no test result.

[1] = system: umbrella sedge (Cyperus difformis); assay: Test B flooded paddy test; conditions: Flood, scale 0 to 100
Source text: as §1

[2] = system: ducksalad (Heteranthera limosa); assay: Test B flooded paddy test; conditions: Flood, scale 0 to 100
Source text: as §1

[3] = system: barnyardgrass (Echinochloa crus-galli); assay: Test B flooded paddy test; conditions: Flood
Source text: as §1

[4] = system: velvetleaf (Abutilon theophrasti); assay: Test A postemergence; conditions: 0 to 100 scale, 0 no effect, 100 complete control, approx. 10 days
Source text: (§2) Seeds of barnyardgrass (Echinochloa crus-galli), large crabgrass (Digitaria sanguinalis), giant foxtail (Setaria faberii), morningglory (Ipomoea spp.), pigweed (Amaranthus retroflexus), velvetleaf (Abutilon theophrasti), wheat (Triticum aestivum) and corn (Zea mays) were planted into a blend of loam soil and sand and treated preemergence with a directed soil spray using test chemicals formulated in a non-phytotoxic solvent mixture which included a surfactant. At the same time these species were also treated with postemergence applications of test compounds formulated in the same manner. Plants ranged in height from 2 to 10 cm and were in the one- to two-leaf stage for the postemergence treatments. Treated plants and untreated controls were maintained in a greenhouse for approximately 10 days, after which time all treated plants were compared to untreated controls and visually evaluated for injury. Plant response ratings, summarized in Table A, are based on a 0 to 100 scale where 0 is no effect and 100 is complete control.

[5] = system: pigweed (Amaranthus retroflexus); assay: Test A postemergence; conditions: 0 to 100 scale, 0 no effect, 100 complete control, approx. 10 days
Source text: as §2

[6] = system: giant foxtail (Setaria faberii); assay: Test A postemergence; conditions: 0 to 100 scale, 0 no effect, 100 complete control, approx. 10 days
Source text: as §2

corn (Zea mays) = assay: Test A postemergence; conditions: 0 to 100 scale, 0 no effect, 100 complete control, approx. 10 days
Source text: as §2

[7] = system: morningglory (Ipomoea spp.); assay: Test A postemergence; conditions: 0 to 100 scale, 0 no effect, 100 complete control, approx. 10 days
Source text: as §2

[8] = system: wheat (Triticum aestivum); assay: Test A postemergence; conditions: 0 to 100 scale, 0 no effect, 100 complete control, approx. 10 days
Source text: as §2

[9] = system: large crabgrass (Digitaria sanguinalis); assay: Test A postemergence; conditions: 0 to 100 scale, 0 no effect, 100 complete control, approx. 10 days
Source text: as §2

[10] = system: barnyardgrass (Echinochloa crus-galli); assay: Test A postemergence; conditions: 0 to 100 scale, 0 no effect, 100 complete control, approx. 10 days
Source text: as §2

wild oat (Avena fatua) = assay: Test B postemergence; conditions: scale 0 to 100
Source text: (§3) Seeds of plant species selected from blackgrass (Alopecurus myosuroides), downy bromegrass (Bromus tectorum), green foxtail (Setaria viridis), Italian ryegrass (Lolium multiflorum), wheat (Triticum aestivum), wild oat (Avena fatua), galium (Galium aparine), bermudagrass (Cynodon dactylon), Surinam grass (Brachiaria decumbens), cocklebur (Xanthium strumarium), corn (Zea mays), large crabgrass (Digitaria sanguinalis), woolly cupgrass (Eriochloa villosa), giant foxtail (Setaria faberii), goosegrass (Eleusine indica), johnsongrass (Sorghum halepense), kochia (Kochia scoparia), lambsquarters (Chenopodium album), morningglory (Ipomoea coccinea), yellow nutsedge (Cyperus esculentus), pigweed (Amaranthus retroflexus), ragweed (Ambrosia elatior), soybean (Glycine max), velvetleaf (Abutilon theophrasti), barley (Hordeum vulgare), canarygrass (Phalaris minor), chickweed (Stellaria media), deadnettle (Lamium amplexicaule) and windgrass (Apera spica-venti) were planted in pots containing Redi-Earth® planting medium (Scotts Company, Marysville, Ohio, USA) comprising spaghnum peat moss, vermiculite, wetting agent and starter nutrients and treated postemergence with test compounds formulated in a non-phytotoxic solvent mixture which included a surfactant. Plants ranged in height from 2 to 18 cm (1- to 4-leaf stage).
(§4) Treated plants and controls were maintained in a greenhouse for 13 to 15 days, after which time all species were compared to controls and visually evaluated. Plant response ratings, summarized in Table B, are based on a scale of 0 to 100 where 0 is no effect and 100 is complete control. A dash (-) response means no test result.

[11] = system: deadnettle (Lamium amplexicaule); assay: Test B postemergence; conditions: scale 0 to 100
Source text: as §3, §4

[12] = system: giant foxtail (Setaria faberii); assay: Test B postemergence; conditions: scale 0 to 100
Source text: as §3, §4

[13] = system: chickweed (Stellaria media); assay: Test B postemergence; conditions: scale 0 to 100
Source text: as §3, §4

[14] = system: yellow nutsedge (Cyperus esculentus); assay: Test B postemergence; conditions: scale 0 to 100
Source text: as §3, §4

[15] = system: blackgrass (Alopecurus myosuroides); assay: Test B postemergence; conditions: scale 0 to 100
Source text: as §3, §4

[16] = system: Italian ryegrass (Lolium multiflorum); assay: Test B postemergence; conditions: scale 0 to 100
Source text: as §3, §4

COCCn1c(-c2cc(F)cc(F)c2)c(Cl)nc(C(=O)C2=C(O)CCCC2=O)c1=O [Compound 6, 5-chloro-6-(3,5-difluorophenyl)-3-[(2-hydroxy-6-oxo-1-cyclohexen-1-yl)carbonyl]-1-(2-methoxyethyl)-2(1H)-pyrazinone]
Plant response rating, Rice (rice (Oryza sativa); 31 g ai/ha): 0 | Plant response rating, Rice (rice (Oryza sativa); 62 g ai/ha): 0 | Plant response rating, Rice (rice (Oryza sativa); 125 g ai/ha): 0 | Plant response rating, Rice (rice (Oryza sativa); 250 g ai/ha): 15 | Plant response rating, Sedge, Umbrella ([1]; 31 g ai/ha): 60 | Plant response rating, Sedge, Umbrella ([1]; 62 g ai/ha): 70 | Plant response rating, Sedge, Umbrella ([1]; 125 g ai/ha): 85 | Plant response rating, Sedge, Umbrella ([1]; 250 g ai/ha): 90 | Plant response rating, Ducksalad ([2]; 31 g ai/ha): 30 | Plant response rating, Ducksalad ([2]; 62 g ai/ha): 50 | Plant response rating, Ducksalad ([2]; 125 g ai/ha): 70 | Plant response rating, Ducksalad ([2]; 250 g ai/ha): 80 | Plant response rating, Barnyardgrass ([3]; 31 g ai/ha, scale 0 to 100): 0 | Plant response rating, Barnyardgrass ([3]; 62 g ai/ha, scale 0 to 100): 0 | Plant response rating, Barnyardgrass ([3]; 125 g ai/ha, scale 0 to 100): 0 | Plant response rating, Barnyardgrass ([3]; 250 g ai/ha, scale 0 to 100 (0 no effect, 100 complete control)): 50 | Plant response rating, Velvetleaf ([4]; 125 g ai/ha): 100 | Plant response rating, Velvetleaf ([4]; 500 g ai/ha): 100 | Plant response rating, Pigweed ([5]; 125 g ai/ha): 70 | Plant response rating, Pigweed ([5]; 500 g ai/ha): 100 | Plant response rating, Foxtail, Giant ([6]; 125 g ai/ha): 50 | Plant response rating, Foxtail, Giant ([6]; 500 g ai/ha): 90 | Plant response rating, Corn (corn (Zea mays); 125 g ai/ha): 0 | Plant response rating, Corn (corn (Zea mays); 500 g ai/ha): 40 | Plant response rating, Morningglory ([7]; 125 g ai/ha): 90 | Plant response rating, Morningglory ([7]; 500 g ai/ha): 100 | Plant response rating, Wheat ([8]; 125 g ai/ha): 0 | Plant response rating, Wheat ([8]; 500 g ai/ha): 20 | Plant response rating, Crabgrass, Large ([9]; 125 g ai/ha): 80 | Plant response rating, Crabgrass, Large ([9]; 500 g ai/ha): 100 | Plant response rating, Barnyardgrass ([10]; 125 g ai/ha): 90 | Plant response rating, Barnyardgrass ([10]; 500 g ai/ha): 100 | Plant response rating, Oat, Wild (wild oat (Avena fatua); 31 g ai/ha): 10 | Plant response rating, Oat, Wild (wild oat (Avena fatua); 62 g ai/ha): 40 | Plant response rating, Oat, Wild (wild oat (Avena fatua); 125 g ai/ha): 40 | Plant response rating, Oat, Wild (wild oat (Avena fatua); 250 g ai/ha): 90 | Plant response rating, Deadnettle ([11]; 31 g ai/ha): 85 | Plant response rating, Deadnettle ([11]; 62 g ai/ha): 85 | Plant response rating, Deadnettle ([11]; 125 g ai/ha): 85 | Plant response rating, Deadnettle ([11]; 250 g ai/ha): 100 | Plant response rating, Foxtail, Giant ([12]; 31 g ai/ha): 65 | Plant response rating, Foxtail, Giant ([12]; 62 g ai/ha): 65 | Plant response rating, Foxtail, Giant ([12]; 125 g ai/ha): 80 | Plant response rating, Foxtail, Giant ([12]; 250 g ai/ha): 95 | Plant response rating, Chickweed ([13]; 31 g ai/ha): 10 | Plant response rating, Chickweed ([13]; 62 g ai/ha): 25 | Plant response rating, Chickweed ([13]; 125 g ai/ha): 55 | Plant response rating, Chickweed ([13]; 250 g ai/ha): 75 | Plant response rating, Nutsedge, Yellow ([14]; 31 g ai/ha): 40 | Plant response rating, Nutsedge, Yellow ([14]; 62 g ai/ha): 45 | Plant response rating, Nutsedge, Yellow ([14]; 125 g ai/ha): 80 | Plant response rating, Nutsedge, Yellow ([14]; 250 g ai/ha): 80 | Plant response rating, Blackgrass ([15]; 31 g ai/ha): 50 | Plant response rating, Blackgrass ([15]; 62 g ai/ha): 55 | Plant response rating, Blackgrass ([15]; 125 g ai/ha): 60 | Plant response rating, Blackgrass ([15]; 250 g ai/ha): 60 | Plant response rating, Ryegrass, Italian ([16]; 31 g ai/ha): 0 | Plant response rating, Ryegrass, Italian ([16]; 62 g ai/ha): 5 | Plant response rating, Ryegrass, Italian ([16]; 125 g ai/ha): 15 | Plant response rating, Ryegrass, Italian ([16]; 250 g ai/ha): 45
